Reference: patent US11078222B2, “Hydroxybenzoic acid derivatives, methods and uses thereof” (UNiVERSIDADE DO PORTO, priority 2016, dated 2021)

Test system: mitochondrial permeability transition pore (mPTP)
Assay: Mitochondrial swelling / mitochondrial permeability transition pore opening
Type: biochemical, rat
Conditions: 2.5, 5, 10 μM pre-incubated 5 min before Ca2+
Description: In an embodiment, and as an example, the effects of some AntiOxBENs on mitochondrial permeability transition pore (mPTP) opening were evaluated. In general, the tested AntiOxBENs had no effect per se on mPTP opening for all tested concentrations.
Increasing concentrations of AntiOxBENs (2.5-10 μM) were added to the reaction medium (200 mM sucrose, 1 mM KH2PO4, 10 mM Tris (pH 7.4), 5 mM succinate and 10 μM EGTA supplemented with 1.5 μM rotenone), in the presence of RLM (1 mg), and allowed to incubate for a 5 min period before the assay. The experiments were initiated by the addition of a suitable concentration of Ca^2+ (15-50 μM), titrated every day. […] The reaction was stirred continuously and the temperature maintained at 37° C.

O=C(CCCCC[P+](c1ccccc1)(c1ccccc1)c1ccccc1)NCCCCCCNC(=O)c1cc(O)c(O)c(O)c1.[Br-] [AntiOxBEN3, [5-(6-(3,4,5-trihydroxybenzamido)hexylamino)carbonylpentyl]triphenylphosphonium bromide]
concentration-dependent inhibition of calcium-dependent mPTP opening: caused a concentration-dependent inhibition
